Assay: xn = mol fraction of the nth substance listed

COC(C)=O + Cc1cccc(C)c1
viscosity [mPa·s], 101 kPa
Details | 298.15 K | 308.15 K
x1 = 0.0409 | 0.565 | 0.515
x1 = 0.151 | 0.524 | 0.484
x1 = 0.2488 | 0.493 | 0.46
x1 = 0.3516 | 0.466 | 0.438
x1 = 0.4423 | 0.446 | 0.421
x1 = 0.4928 | 0.436 | 0.412
x1 = 0.5514 | 0.426 | 0.403
x1 = 0.6505 | 0.412 | 0.388
x1 = 0.7498 | 0.4 | 0.376
x1 = 0.8506 | 0.392 | 0.364
x1 = 0.9429 | 0.386 | 0.356

CCC(C)=O + CCCCCCCO
viscosity [mPa·s], 100 kPa
Details | x1 = 0.0829 | x1 = 0.1614 | x1 = 0.2389 | x1 = 0.3509 | x1 = 0.4404 | x1 = 0.5592 | x1 = 0.6488 | x1 = 0.7389 | x1 = 0.8502 | x1 = 0.9396
293.15 K | 5.23 | 3.85 | 3.02 | 2.1 | 1.64 | 1.16 | 0.92 | 0.73 | 0.56 | 0.47
303.15 K | 3.72 | 2.97 | 2.31 | 1.69 | 1.31 | 0.9 | 0.73 | 0.6 | 0.45 | 0.39
313.15 K | 2.85 | 2.28 | 1.82 | 1.38 | 1.11 | 0.82 | 0.68 | 0.56 | 0.44 | 0.38
323.15 K | 2.21 | 1.82 | 1.48 | 1.15 | 0.93 | 0.7 | 0.58 | 0.5 | 0.39 | 0.34

C1CCCCC1 + CC(C)O
303.15 K, 101.33 kPa
Details | viscosity [mPa·s]
x2 = 0.098 | 0.8169
x2 = 0.2003 | 0.8387
x2 = 0.3097 | 0.8861
x2 = 0.3997 | 0.9325
x2 = 0.4969 | 0.9831
x2 = 0.6009 | 1.063
x2 = 0.7025 | 1.174
x2 = 0.8004 | 1.313

COC(C)=O + CCCCCCCCCCCCCCCC
298.15 K, 101.3 kPa
Details | viscosity [mPa·s]
x1 = 0.0393 | 2.924
x1 = 0.118 | 2.619
x1 = 0.3657 | 1.819
x1 = 0.4814 | 1.491
x1 = 0.5357 | 1.35
x1 = 0.652 | 1.086
x1 = 0.7625 | 0.8431
x1 = 0.8682 | 0.6349
x1 = 0.9609 | 0.4379

C1CCCCC1 + CCCCCCCCCC
Details | viscosity [mPa·s]
298.15 K, 101 kPa, x2 = 0.1357 | 0.8838
298.15 K, 101 kPa, x2 = 0.1638 | 0.8739
298.15 K, 101 kPa, x2 = 0.1909 | 0.8684
298.15 K, 101 kPa, x2 = 0.2292 | 0.8595
298.15 K, 101 kPa, x2 = 0.2677 | 0.8527
298.15 K, 101 kPa, x2 = 0.2769 | 0.8484
298.15 K, 101 kPa, x2 = 0.316 | 0.8438
298.15 K, 101 kPa, x2 = 0.3563 | 0.8348
298.15 K, 101.33 kPa, x1 = 0.1037 | 0.836
298.15 K, 101.33 kPa, x1 = 0.1316 | 0.8418
298.15 K, 101.33 kPa, x1 = 0.2065 | 0.824
298.15 K, 101.33 kPa, x1 = 0.254 | 0.8386
298.15 K, 101.33 kPa, x1 = 0.3077 | 0.818
298.15 K, 101.33 kPa, x1 = 0.3302 | 0.8292
298.15 K, 101.33 kPa, x1 = 0.4003 | 0.818
298.15 K, 101.33 kPa, x1 = 0.467 | 0.8331
298.15 K, 101.33 kPa, x1 = 0.5005 | 0.818
298.15 K, 101.33 kPa, x1 = 0.5494 | 0.8222
298.15 K, 101.33 kPa, x1 = 0.6 | 0.814
298.15 K, 101.33 kPa, x1 = 0.6289 | 0.8303
298.15 K, 101.33 kPa, x1 = 0.7015 | 0.8247
298.15 K, 101.33 kPa, x1 = 0.7045 | 0.812
298.15 K, 101.33 kPa, x1 = 0.7719 | 0.8409
298.15 K, 101.33 kPa, x1 = 0.802 | 0.819
298.15 K, 101.33 kPa, x1 = 0.8324 | 0.8412
298.15 K, 101.33 kPa, x1 = 0.8857 | 0.8612
298.15 K, 101.33 kPa, x1 = 0.9001 | 0.845
298.15 K, 101.33 kPa, x1 = 0.9309 | 0.8746
298.15 K, 101.33 kPa, x2 = 0.0178 | 0.8968
303.15 K, 101.33 kPa, x1 = 0.1037 | 0.78
303.15 K, 101.33 kPa, x1 = 0.2065 | 0.766
303.15 K, 101.33 kPa, x1 = 0.3077 | 0.761
303.15 K, 101.33 kPa, x1 = 0.4003 | 0.761
303.15 K, 101.33 kPa, x1 = 0.5005 | 0.76
303.15 K, 101.33 kPa, x1 = 0.6 | 0.756
303.15 K, 101.33 kPa, x1 = 0.7045 | 0.754
303.15 K, 101.33 kPa, x1 = 0.802 | 0.759
303.15 K, 101.33 kPa, x1 = 0.9001 | 0.78
308.15 K, 101 kPa, x1 = 0.0439 | 0.7345
308.15 K, 101 kPa, x1 = 0.175 | 0.7272
308.15 K, 101 kPa, x1 = 0.2106 | 0.7254
308.15 K, 101 kPa, x1 = 0.3096 | 0.7164
308.15 K, 101 kPa, x1 = 0.3863 | 0.7147
308.15 K, 101 kPa, x1 = 0.4943 | 0.7122
308.15 K, 101 kPa, x1 = 0.5864 | 0.7133
308.15 K, 101 kPa, x1 = 0.7303 | 0.7189
308.15 K, 101 kPa, x1 = 0.8805 | 0.7325
308.15 K, 101 kPa, x1 = 0.9385 | 0.7399
308.15 K, 101.33 kPa, x1 = 0.1037 | 0.728
308.15 K, 101.33 kPa, x1 = 0.2065 | 0.713
308.15 K, 101.33 kPa, x1 = 0.3077 | 0.708
308.15 K, 101.33 kPa, x1 = 0.4003 | 0.71
308.15 K, 101.33 kPa, x1 = 0.5005 | 0.71
308.15 K, 101.33 kPa, x1 = 0.6 | 0.702
308.15 K, 101.33 kPa, x1 = 0.7045 | 0.699
308.15 K, 101.33 kPa, x1 = 0.802 | 0.703
308.15 K, 101.33 kPa, x1 = 0.9001 | 0.716
313.15 K, 101 kPa, x1 = 0.0439 | 0.6849
313.15 K, 101 kPa, x1 = 0.175 | 0.6717
313.15 K, 101 kPa, x1 = 0.2106 | 0.6706
313.15 K, 101 kPa, x1 = 0.3096 | 0.666
313.15 K, 101 kPa, x1 = 0.3863 | 0.6618
313.15 K, 101 kPa, x1 = 0.4943 | 0.6596
313.15 K, 101 kPa, x1 = 0.5864 | 0.6577
313.15 K, 101 kPa, x1 = 0.7303 | 0.6684
313.15 K, 101 kPa, x1 = 0.8805 | 0.6936
313.15 K, 101 kPa, x1 = 0.9385 | 0.7077

COCCOC + CCCCCCCCCO
101 kPa
Details | viscosity [mPa·s]
293.15 K, x1 = 0.05508 | 9.45
293.15 K, x1 = 0.1012 | 7.813
293.15 K, x1 = 0.2007 | 5.336
293.15 K, x1 = 0.2922 | 3.86
293.15 K, x1 = 0.393 | 2.747
293.15 K, x1 = 0.494 | 1.994
293.15 K, x1 = 0.5924 | 1.477
293.15 K, x1 = 0.7015 | 1.076
293.15 K, x1 = 0.7986 | 0.812
293.15 K, x1 = 0.907 | 0.588
293.15 K, x1 = 0.9472 | 0.524
303.15 K, x1 = 0.04903 | 6.486
303.15 K, x1 = 0.1035 | 5.323
303.15 K, x1 = 0.2044 | 3.716
303.15 K, x1 = 0.2954 | 2.745
303.15 K, x1 = 0.3981 | 1.979
303.15 K, x1 = 0.4938 | 1.485
303.15 K, x1 = 0.5991 | 1.098
303.15 K, x1 = 0.7049 | 0.816
303.15 K, x1 = 0.7958 | 0.643
303.15 K, x1 = 0.902 | 0.492
303.15 K, x1 = 0.9436 | 0.446
313.15 K, x1 = 0.05382 | 4.747
313.15 K, x1 = 0.1054 | 4
313.15 K, x1 = 0.2052 | 2.936
313.15 K, x1 = 0.2949 | 2.233
313.15 K, x1 = 0.3955 | 1.66
313.15 K, x1 = 0.4901 | 1.279
313.15 K, x1 = 0.5829 | 1.007
313.15 K, x1 = 0.7 | 0.739
313.15 K, x1 = 0.8016 | 0.58
313.15 K, x1 = 0.9013 | 0.457
313.15 K, x1 = 0.9469 | 0.41

COC(C)=O + CCCCCCCC
298.15 K, 101.3 kPa
Details | viscosity [mPa·s]
x1 = 0.1268 | 0.4797
x1 = 0.2408 | 0.4518
x1 = 0.337 | 0.4361
x1 = 0.431 | 0.4213
x1 = 0.5066 | 0.4108
x1 = 0.5788 | 0.4021
x1 = 0.644 | 0.3953
x1 = 0.757 | 0.3849
x1 = 0.8528 | 0.3786

CCC(C)=O + CCC(C)O
viscosity [mPa·s], 101.3 kPa
Details | x2 = 0.1018 | x2 = 0.1991 | x2 = 0.2984 | x2 = 0.397 | x2 = 0.4966 | x2 = 0.5968 | x2 = 0.6985 | x2 = 0.8007 | x2 = 0.9003
298.15 K | 0.423 | 0.461 | 0.511 | 0.578 | – | 0.804 | 1.005 | 1.332 | 1.896
308.15 K | 0.38 | 0.415 | 0.452 | 0.505 | 0.576 | 0.677 | 0.824 | – | 1.426
318.15 K | 0.344 | 0.369 | 0.402 | 0.445 | 0.501 | 0.578 | 0.686 | 0.849 | 1.099

COC(C)=O + CCCCCCCCCCCC
298.15 K, 101.3 kPa
Details | viscosity [mPa·s]
x1 = 0.09 | 1.243
x1 = 0.213 | 1.08
x1 = 0.3361 | 0.9577
x1 = 0.4514 | 0.8306
x1 = 0.5533 | 0.7377
x1 = 0.6236 | 0.6777
x1 = 0.6972 | 0.6144
x1 = 0.7671 | 0.557
x1 = 0.8924 | 0.4527
x1 = 0.9377 | 0.4171

— the CheMixHub viscosity set
